A word on the IC50: it is the concentration at which inhibition is half-maximal. Higher therefore signals lower potency.

The assay has as its target SREBP-2 (Homo sapiens (Human), UniProt Q12772). The experiment in a line: In vitro assay SREBP-2: PathHunter U2OS SREBP-2 Nuclear Translocation Cell Line, U18666A-stimulated. Type of assay: cell-based. The settings on record: PathHunter U2OS SREBP-2 nuclear translocation cells, U18666A 10 μM, overnight (16 hours).
On to `C[C@H](CNC(=O)N(C)C)[C@H]1CC[C@H]2[C@@H]3CC=C4C[C@@H](O)CC[C@]4(C)[C@H]3CC[C@]12C` [Example 347, 3-((S)-2-((3S,8S,9S,10R,13S,14S,17R)-3-hydroxy-10,13-dimethyl-2,3,4,7,8,9,10,11,12,13,14,15,16,17-tetradecahydro-1H-cyclopenta[a]phenanthren-17-yl)propyl)-1,1-dimethylurea], for which the IC50 lay in the range of 250 to 1000 nM. In the case of `CCC1(O)CCN(C(=O)CCC[C@H]2CC[C@H]3[C@@H]4CC=C5C[C@@H](O)CC[C@]5(C)[C@H]4CC[C@]23C)CC1` [Example 370, 1-(4-ethyl-4-hydroxypiperidin-1-yl)-4-((3S,8S,9S,10R,13R,14S,17S)-3-hydroxy-10,13-dimethyl-2,3,4,7,8,9,10,11,12,13,14,15,16,17-tetradecahydro-1H-cyclopenta[a]phenanthren-17-yl)butan-1-one], the IC50 was 250 to 1000 nM. With `C[C@H](CCC(=O)N1CCC(O)(C(F)F)CC1)[C@H]1CC[C@H]2[C@@H]3CC=C4C[C@@H](O)CC[C@]4(C)[C@H]3CC[C@]12C` [Example 128, (R)-1-(4-(difluoromethyl)-4-hydroxypiperidin-1-yl)-4-((3S,8S,9S,10R,13R,14S,17R)-3-hydroxy-10,13-dimethyl-2,3,4,7,8,9,10,11,12,13,14,15,16,17-tetradecahydro-1H-cyclopenta[a]phenanthren-17-yl)pentan-1-one], the IC50 is below 250 nM.

On to `CNC(=O)c1ccc(OC[C@@H](C)[C@H]2CC[C@H]3[C@@H]4CC=C5C[C@@H](O)CC[C@]5(C)[C@H]4CC[C@]23C)nc1` [Example 449, 6-((S)-2-((3S,8S,9S,10R,13S,14S,17R)-3-hydroxy-10,13-dimethyl-2,3,4,7,8,9,10,11,12,13,14,15,16,17-tetradecahydro-1H-cyclopenta[a]phenanthren-17-yl)propoxy)-N-methylnicotinamide], for which the IC50 was below 250 nM. With `COC(=O)N1CCN(C(=O)O[C@@H](C)[C@H]2CC[C@H]3[C@@H]4CC=C5C[C@@H](O)CC[C@]5(C)[C@H]4CC[C@]23C)CC1` [Example 237, 1-(1S)-1-[(1S,3aS,3bS,7S,9aR,9bS,11aS)-7-hydroxy-9a,11a-dimethyl-1H,2H,3H,3aH,3bH,4H,6H,7H,8H,9H,9aH,9bH,10H,11H,11aH-cyclopenta[a]phenanthren-1-yl]ethyl 4-methyl piperazine-1,4-dicarboxylate], the IC50 was below 250 nM. As for `Cc1noc(C(=O)N[C@H]2CCN(C(=O)CC[C@@H](C)[C@H]3CC[C@H]4[C@@H]5CC=C6C[C@@H](O)CC[C@]6(C)[C@H]5CC[C@]34C)C2)n1` [Example 527, N—((S)-1-((R)-4-((3S,8S,9S,10R,13R,14S,17R)-3-hydroxy-10,13-dimethyl-2,3,4,7,8,9,10,11,12,13,14,15,16,17-tetradecahydro-1H-cyclopenta[a]phenanthren-17-yl)pentanoyl)pyrrolidin-3-yl)-3-methyl-1,2,4-oxadiazole-5-carboxamide], the figure is below 250 nM; as for `C[C@H](CCC(=O)N1CCC(CN2CCOC(C)(C)C2=O)CC1)[C@H]1CC[C@H]2[C@@H]3CC=C4C[C@@H](O)CC[C@]4(C)[C@H]3CC[C@]12C` [Example 522, 4-({1-[(4R)-4-[(1R,3aS,3bS,7S,9aR,9bS,11aR)-7-hydroxy-9a,11a-dimethyl-1H,2H,3H,3aH,3bH,4H,6H,7H,8H,9H,9aH,9bH,10H,11H,11aH-cyclopenta[a]phenanthren-1-yl]pentanoyl]piperidin-4-yl}methyl)-2,2-dimethylmorpholin-3-one], below 250 nM; as for `CNC(=O)N[C@H]1CCN(C(=O)CC[C@@H](C)[C@H]2CC[C@H]3[C@@H]4CC=C5C[C@@H](O)CC[C@]5(C)[C@H]4CC[C@]23C)C1` [Example 533, 1-((S)-1-((R)-4-((3S,8S,9S,10R,13R,14S,17R)-3-hydroxy-10,13-dimethyl-2,3,4,7,8,9,10,11,12,13,14,15,16,17-tetradecahydro-1H-cyclopenta[a]phenanthren-17-yl)pentanoyl)pyrrolidin-3-yl)-3-methylurea], below 250 nM.
